# In US10555923B2, “Method for treating paroxysmal nocturnal hemoglobinuria” (ENZYCHEM LIFESCIENCES CORPORATION, priority 2015, dated 2020):
# Columns and labels:
# STAT6 [1] = biological target: T1, STAT6 (Homo sapiens, UniProt P42226); test: Dephosphorylation of STAT6 in IL-4 stimulated cell lysates (Western blot); type: cell-based; conditions: U937, Jurkat and A549 cells; PLAG 0.01 to 10 μg/ml; 10 ng/ml IL-4; 15 min after stimulation
# T1 construct: using anti-phosphorylated STAT6 in U937, A549, and Jurkat cell lysates treated with PLAG; endogenous in cells; host or cells: U937, A549, Jurkat
# T1 sequence (P42226 1-847): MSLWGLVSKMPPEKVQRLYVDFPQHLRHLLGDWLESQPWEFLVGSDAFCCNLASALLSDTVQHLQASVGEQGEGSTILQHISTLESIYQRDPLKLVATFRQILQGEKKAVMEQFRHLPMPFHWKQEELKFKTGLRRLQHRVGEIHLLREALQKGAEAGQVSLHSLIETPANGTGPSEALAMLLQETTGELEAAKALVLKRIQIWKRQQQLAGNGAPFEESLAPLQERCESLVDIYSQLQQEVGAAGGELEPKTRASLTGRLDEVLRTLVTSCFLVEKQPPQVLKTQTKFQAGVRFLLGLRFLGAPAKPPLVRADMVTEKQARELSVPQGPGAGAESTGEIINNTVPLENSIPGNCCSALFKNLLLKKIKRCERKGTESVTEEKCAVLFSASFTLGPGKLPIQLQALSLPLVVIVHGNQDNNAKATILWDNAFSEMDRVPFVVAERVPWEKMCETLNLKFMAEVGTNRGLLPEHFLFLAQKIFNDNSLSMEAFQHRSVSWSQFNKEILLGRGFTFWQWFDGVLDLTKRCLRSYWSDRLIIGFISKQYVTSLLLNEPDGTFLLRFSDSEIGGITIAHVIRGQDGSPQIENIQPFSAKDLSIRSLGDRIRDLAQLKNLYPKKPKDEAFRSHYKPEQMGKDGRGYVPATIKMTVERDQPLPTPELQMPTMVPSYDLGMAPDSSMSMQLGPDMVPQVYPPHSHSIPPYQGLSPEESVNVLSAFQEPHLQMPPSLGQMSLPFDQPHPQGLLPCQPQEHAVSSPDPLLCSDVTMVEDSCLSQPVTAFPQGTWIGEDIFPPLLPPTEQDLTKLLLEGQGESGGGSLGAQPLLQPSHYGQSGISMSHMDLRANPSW
# Protocol: Dephosphorylation of STAT6 is examined using anti-phosphorylated STAT6 in U937, A549, and Jurkat cell lysates treated with PLAG at a concentration from 0.01 to 10 μg/ml. Phosphorylation of STAT6 is induced by treatment with 10 ng/ml of IL-4. Dephosphorylation of STAT1 is examined in the U937 cell lysate treated with PLAG (0.01 to 10 μg/ml). Phosphorylation of STAT1 is induced by 10 ng of IFN-γ treatment. Dephosphorylation of STAT1 and STAT6 is examined at 15 min after stimulation with IFN-γ and IL-4 respectively, in the PLAG pretreated cells. […] The transcriptional activity of STAT6 is decreased by the dephosphorylation of STAT6. […] No effect of PLAG on STAT1 phosphorylation is observed.
# STAT6 [2] = test: Reporter (luciferase) assay for STAT6 transcriptional activity in HepG2 cells; type: cell-based, human; conditions: 10 ng IL-4, PLAG 0.01-10 μg/ml, 12 hour incubation
# Protocol: (§1) By using STAT6 inhibitor (S6I), it is confirmed that the reduction of complement 3 in HepG2 cells (human hepatocyte cell line) is regulated by STAT6. […] It is also confirmed that PLAG has selective efficacy on STAT6 over STAT1. FIG. 1 presents graphs showing STAT1 and STAT6 transcriptional activity in the PLAG treated HepG2 cells. NC refers to the unstimulated control cell. For the STAT1 assay, gene transfected HepG2 (human hepatocyte cell line) is treated with 10 ng of IFN-γ and serially diluted PLAG is added (0.01 μg/ml, 0.1 μg/ml, 1 μg/ml, and 10 μg/ml as shown) to see its effect on gene expression in the stimulated cell. For the STAT6 assay, gene transfected HepG2 cells are treated with 10 ng of IL-4 and again serially diluted PLAG is added (0.01 μg/ml, 0.1 μg/ml, 1 μg/ml, and 10 μg/ml as shown) to see its effect on gene expression in the stimulated cell. The assay is carried out following a 12 hour incubation of treated cells.
# STAT1 = test: Reporter assay for STAT1 transcriptional activity in HepG2 cells; type: cell-based, human; conditions: 10 ng IFN-γ, PLAG 0.01-10 μg/ml, 12 hour incubation
# Protocol: as §1
# C3 [3] = test: In vitro inhibition of C3 expression in HMC-1 cells (IL-4/TNF-α induced, RT-PCR); type: cell-based, human; conditions: IL-4 (5 ng) and TNF-α (10 ng), PLAG 0.1 and 1 μg/mL
# Protocol: A blood cell line, HMC-1 (human mast cell, American Type Culture Collection, ATCC, Rockville, Md.) is incubated and maintained at 37° C. under 5% CO2 humid conditions. The medium is IMDM (Life Technologies, Karlsruhe, Germany) containing 10% Fetal Calf Serum (FCS, HyClone, Logan, Utah), 2 mM […], 100 μg/ml penicillin, 100 μg/ml streptomycin (Life Technologies). The cultured HMC-1 cells (1×10^6 cell/ml) are pretreated with 0.1 and 1 μg/mL concentrations of PLAG, followed by treatment with IL-4 (5 ng) and/or TNF-α (10 ng) to induce cellular activities.
# The expressed C3 and its mRNA level changes are observed by using RT-PCR (Reverse Transcriptase Polymerase Chain Reaction). The RT-PCR is carried out as follows: the total RNA is separated by the standard protocol and cDNA is synthesized using AccuScript High Fidelity 1st Strand cDNA Synthesis Kit (Stratagene). Two-step RT-PCR reaction is conducted using Oligo-dT primer and reverse transcriptase, pair of primers and Taq polymerase (Takara, Shiga, Japan). […] The product of PCR is separated using 1.5% agarose gel, dyed with ethidium bromide (EtBr), and visualized with Gel Doc 2000 UV trans-illuminator (Bio-Rad Laboratories, Hercules, Calif., USA), and the experimental data is analyzed using Quantity One software (Bio-Rad Laboratories).
# C3 [4] = test: C3 inhibition in HMC-1 cells (ELISA); type: cell-based, human; conditions: PLAG 1, 10 and 100 μg/mL for 2 hours, activated 72 hours with 10% FBS
# Protocol: In a separate experiment, human mast cells (HMC-1, 1×10^5 cell/ml) are treated with PLAG of various concentrations (1, 10 and 100 μg/mL) for 2 hours. The cells are activated for 72 hours with 10% FBS (Fetal bovine serum) containing IMDM. The decrease of C3 is confirmed by ELISA analysis of the expressed protein.
# C3 [5] = test: C3 mRNA expression in HepG2 cell line (RT-PCR); type: cell-based, human
# Protocol: A liver cell line, HepG2 (American Type Culture Collection, ATCC, Rockville, Md.), is incubated and maintained at 37° C., 5% CO2 humid atmosphere in DMEM medium. When HepG2 cells, which are known to produce complement in culture, are treated with PLAG, the activity of complement is reduced effectively, as confirmed by RT-PCR of mRNA. In the RT-PCR, 5×10^5 HepG2 cells/ml are distributed into 12 well plates and induced C3 for 12 hours with 10% FCS. Then PLAG is added and further cultured for 2 hours. Cells are harvested and mRNA is isolated and RT-PCR is carried out with specific primers for C3; GAPDH is used as an internal control.
# C3 [6] = test: C3 in culture supernatant of HepG2 cells (ELISA); type: cell-based, human; conditions: PLAG 1 to 100 μg/ml or S6I 10 and 100 μg/ml, IL-4 and TNF-α 1 hr, incubated 18 hr
# Protocol: (§2) The incubated HepG2 cell lines are treated with PLAG (1˜100 μg/ml), followed by IL-4 and TNF-α, reacted for 1 hour, incubated for 18 hours at 37° C. and the supernatant is isolated. Quantitation of the amount of C3 in the cellular culture medium (supernatant) from HepG2 cells is performed by ELISA using a commercially available monoclonal antibody (mAb, R&D Systems) and the manufacture's protocol; the results are presented in FIGS. 3A-3C. C3 is expressed spontaneously under in vitro culture conditions using 10% FCS added to HepG2 cells and incubated for 12 hr. The cells are treated with PLAG from 1 to 100 μg/ml (FIG. 3A, FIG. 3B) or 10 and 100 μg/ml of S6I (FIG. 3C), reacted with IL-4 and TNF-α for 1 hr and then incubated for 18 hr at 37° C. Cellular viability is confirmed using the WST-1 assay (FIG. 3A).
# HepG2 cells = test: WST-1 cell viability assay in HepG2 cells; type: cell-based; conditions: PLAG 1 to 100 μg/ml
# Protocol: as §2
# [7] = Colony forming units (CFUs) in spleen assay in heavily irradiated mice; type: in vivo; conditions: 50 mg/kg/d i.p. or p.o.
# Protocol: In order to determine the in vivo effect of PLAG on the recovery of hematopoiesis, a CFUs assay is performed in heavily irradiated mice.
# complement 3 = test: Complement 3 activation by chemotherapeutic agents in mouse model; type: in vivo; conditions: mice; PLAG 50 mg/kg daily 3 weeks with Gemcitabine, Cyclosphosphamide or Tamoxifen
# Protocol: The effect of PLAG for treatment of chemotherapy-induced thrombocytopenia (CIT) is evaluated in an animal model. Anti-cancer agents (Gemcitabine 50 mg/kg, Cyclosphosphamide 100 mg/kg, or Tamoxifen 50 mg/kg) are dosed daily for 3 weeks; PLAG is also administered at 50 mg/kg daily for 3 weeks.
# It is believed that the leukopenia and thrombocytopenia of these agents and other chemotherapeutic agents may be due at least in part to a specific complement-mediated toxicity. This is seen in FIG. 5.
# [8] = tested on: hematopoietic stem cells and megakaryocytes; conditions: reported in WO 99/26640; cited from earlier work
Structure (SMILES),IL-4 treatment induced STAT6 phosphorylation (STAT6 [1]),STAT6 transcriptional activity (expression) (STAT6 [2]),STAT1 transcriptional activity (expression) (STAT1),expression of C3 (C3 [3]),decrease of C3 (ELISA of expressed protein) (C3 [4]),"inhibition of C3 expression (mRNA, RT-PCR) (C3 [5]; PLAG 1 μg/ml, 2 hours)","inhibition of C3 expression (mRNA, RT-PCR) (C3 [5]; PLAG 10 μg/ml, 2 hours)","expression of C3 (amount in supernatant, ELISA) (C3 [6])",cellular propagation and death (WST-1 viability) (HepG2 cells),"number of splenic nodules, primitive progenitor cells and megakaryocytes [7]",blockage of chemotherapy-induced complement 3 activation (complement 3),growth-stimulating activities of hematopoietic stem cells and megakaryocytes [8],"inhibition of C3 expression (mRNA, RT-PCR) (C3 [5]; S6I 10 and 100 μg/ml, compared with PLAG 1 and 10 μg/ml)"
"CCCCC/C=C\C/C=C\CCCCCCCC(=O)OC(COC(C)=O)COC(=O)CCCCCCCCCCCCCCC (racemic) [PLAG, 1-palmitoyl-2-linoleoyl-3-acetylglycerol]",inhibited with increasing PLAG concentrations,"significant, dose-dependent effect",no effect,suppressed by PLAG on a concentration dependent basis,proportional to the concentration of PLAG,somewhat,entirely,decreased dose-dependently,does not affect the cellular propagation and death,marked increase,largely blocked,have growth-stimulating activities,
"NC(=O)c1cnc(NCCc2ccc(O)c(Cl)c2)nc1NCc1ccccc1 [S6I, reference compound]",,,,suppresses expression of C3,,,,,,,,,comparable
